Each structure is given as a SMILES string. Activity calls are given as the source filed them. The calls are words filed in the database; no cut-off is given here.

The target of series [1] is T1, Protein deacetylase HDAC6 (Homo sapiens, UniProt Q9UBN7).
T1 sequence (Q9UBN7 whole entry): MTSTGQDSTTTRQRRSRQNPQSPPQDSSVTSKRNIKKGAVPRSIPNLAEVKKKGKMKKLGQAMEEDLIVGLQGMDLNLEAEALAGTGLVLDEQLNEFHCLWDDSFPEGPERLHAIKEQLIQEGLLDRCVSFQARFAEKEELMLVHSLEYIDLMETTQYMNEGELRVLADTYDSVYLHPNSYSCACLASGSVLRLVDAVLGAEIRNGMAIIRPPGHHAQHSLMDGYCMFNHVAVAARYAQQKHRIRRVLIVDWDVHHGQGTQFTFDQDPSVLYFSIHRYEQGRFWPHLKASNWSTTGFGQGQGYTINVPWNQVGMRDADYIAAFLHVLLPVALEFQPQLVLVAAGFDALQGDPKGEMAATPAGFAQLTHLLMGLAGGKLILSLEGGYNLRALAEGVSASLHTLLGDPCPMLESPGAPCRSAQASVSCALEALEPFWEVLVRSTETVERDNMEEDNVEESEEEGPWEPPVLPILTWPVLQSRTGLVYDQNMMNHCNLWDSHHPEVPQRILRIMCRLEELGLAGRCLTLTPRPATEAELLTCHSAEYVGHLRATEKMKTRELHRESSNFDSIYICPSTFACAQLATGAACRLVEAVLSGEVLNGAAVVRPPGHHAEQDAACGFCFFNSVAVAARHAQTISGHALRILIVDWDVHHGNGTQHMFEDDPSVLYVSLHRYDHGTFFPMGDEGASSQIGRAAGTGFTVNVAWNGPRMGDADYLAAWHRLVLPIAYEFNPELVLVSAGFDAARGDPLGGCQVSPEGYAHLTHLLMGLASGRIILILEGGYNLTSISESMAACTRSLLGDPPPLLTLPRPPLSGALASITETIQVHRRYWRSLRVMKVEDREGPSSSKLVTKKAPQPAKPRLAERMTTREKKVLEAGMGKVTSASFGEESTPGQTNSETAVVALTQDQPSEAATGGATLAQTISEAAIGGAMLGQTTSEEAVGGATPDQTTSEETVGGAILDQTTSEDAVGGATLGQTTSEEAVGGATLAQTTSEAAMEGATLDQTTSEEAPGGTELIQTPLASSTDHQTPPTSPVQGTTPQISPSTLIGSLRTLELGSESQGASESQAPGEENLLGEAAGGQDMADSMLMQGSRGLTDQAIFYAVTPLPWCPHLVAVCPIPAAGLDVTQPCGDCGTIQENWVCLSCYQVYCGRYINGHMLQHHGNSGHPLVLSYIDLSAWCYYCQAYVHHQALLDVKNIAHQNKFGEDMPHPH
The experiment in a line: Inhibition of human HDAC6 using Ac-Lys (Ac)-AMC as substrate incubated for 120 mins by fluorescence analysis.

For series [2], the target named is T1, Protein deacetylase HDAC6. The experiment in a line: Inhibition of recombinant human full length HDAC6 using Boc-Lys (Ac)-AMC as substrate incubated for 120 mins by fluorescence analysis.
Series [3] concerns the target Histone deacetylase 1 (Homo sapiens, UniProt Q13547). The experiment in a line: Inhibition of human HDAC1 incubated for 10 mins and measured after 30 mins by ELISA.
Series [4] is filed under the species Homo sapiens. Kind of series: Selectivity index, ratio IC50 inhibition of human HDAC1 to IC50 for inhibition of human HDAC6 using Ac-Lys (Ac)-AMC as substrate.
Series [5] in a line: Cytotoxicity against HELF cells assessed as reduction in viability at 10 uM after 48 hrs by MTT assay. The series is classed as toxicity, cell-based. The settings on record: human.
Series [6] in a line: Cytotoxicity against HELF cells assessed as reduction in viability at 1 to 300 uM after 48 hrs under without FBS condition by MTT assay. The series is classed as toxicity, cell-based. As to conditions: human, dose 1-300 µM. In general terms: Tetrazolium assays rely on reduction of a dye to a coloured formazan, in cell work by metabolically active cells.
For series [7], the system named is HELF. The experiment in a line: Antifibrotic activity against TGF-beta1-induced HELF cells assessed as reduction in viability at 10 uM after 48 hrs by MTT assay. The series is classed as functional, cell-based. The settings on record: Homo sapiens.
Series [8] has as its system Mus musculus. Kind of series: Anti-pulmonary fibrosis activity in bleomycin-induced C57BL/6 mouse model of pulmonary fibrosis assessed as decrease structural damage in lung at 100 mg/kg, ip for 3 weeks by H and E staining based fluorescence microscopic analysis. The series is classed as functional, organism-based.
Series [9] relates to Mus musculus. The experiment in a line: Anti-pulmonary fibrosis activity in bleomycin-induced C57BL/6 mouse model of pulmonary fibrosis assessed as decrease in collapse of the alveolar cavity in lung at 100 mg/kg, ip for 3 weeks by Masson trichrome staining based microscopic analysis. The series is classed as functional, organism-based.
For series [10], the system named is Mus musculus. The experiment in a line: Anti-pulmonary fibrosis activity in bleomycin-induced C57BL/6 mouse model of pulmonary fibrosis assessed as decrease in structural damage in lung at 100 mg/kg, ip for 3 weeks by Masson trichrome staining based microscopic analysis. The series is classed as functional, organism-based.
The subject of series [11] is Mus musculus. The experiment in a line: Anti-pulmonary fibrosis activity in bleomycin-induced C57BL/6 mouse model of pulmonary fibrosis assessed as decrease in collagen level in lung at 100 mg/kg, ip for 3 weeks by Masson trichrome staining based microscopic analysis. The series is classed as functional, organism-based.
In series [12] the test system is Mus musculus. The experiment in a line: Anti-pulmonary fibrosis activity in bleomycin-induced C57BL/6 mouse model of pulmonary fibrosis assessed as decrease in disturbance of alveolar structure in lung at 100 mg/kg, ip for 3 weeks by H and E staining based fluorescence microscopic analysis. The series is classed as functional, organism-based.
In series [13] the test system is Mus musculus. Kind of series: Anti-pulmonary fibrosis activity in bleomycin-induced C57BL/6 mouse model of pulmonary fibrosis assessed as decrease in thickening of the alveolar wall in lung at 100 mg/kg, ip for 3 weeks by H and E staining based fluorescence microscopic analysis. The series is classed as functional, organism-based.
Series [14] relates to Mus musculus. Kind of series: Anti-pulmonary fibrosis activity in bleomycin-induced C57BL/6 mouse model of pulmonary fibrosis assessed as decrease in thickening of the alveolar wall in lung at 100 mg/kg, ip for 3 weeks by Masson trichrome staining based microscopic analysis. The series is classed as functional, organism-based.
In series [15] the test system is Mus musculus. The experiment in a line: Anti-pulmonary fibrosis activity in bleomycin-induced C57BL/6 mouse model of pulmonary fibrosis assessed as decrease in collapse of the alveolar cavity in lung at 100 mg/kg, ip for 3 weeks by H and E staining based fluorescence microscopic analysis. The series is classed as functional, organism-based.
Series [16] has as its system Mus musculus. The experiment in a line: Anti-pulmonary fibrosis activity in bleomycin-induced C57BL/6 mouse model of pulmonary fibrosis assessed as increase in body weight at 100 mg/kg, ip for 3 weeks. The series is classed as functional, organism-based.
Series [17] relates to Mus musculus. Kind of series: Anti-pulmonary fibrosis activity in bleomycin-induced C57BL/6 mouse model of pulmonary fibrosis assessed as decrease in inflammatory cell infiltration in lung at 100 mg/kg, ip for 3 weeks by H and E staining based fluorescence microscopic analysis. The series is classed as functional, organism-based.
Series [18] has as its system Mus musculus. Kind of series: Anti-pulmonary fibrosis activity in bleomycin-induced C57BL/6 mouse model of pulmonary fibrosis assessed as decrease in fibrosis scars in lung at 100 mg/kg, ip for 3 weeks by H and E staining based fluorescence microscopic analysis. The series is classed as functional, organism-based.

Histone deacetylase 1, sequence (Q13547 whole entry): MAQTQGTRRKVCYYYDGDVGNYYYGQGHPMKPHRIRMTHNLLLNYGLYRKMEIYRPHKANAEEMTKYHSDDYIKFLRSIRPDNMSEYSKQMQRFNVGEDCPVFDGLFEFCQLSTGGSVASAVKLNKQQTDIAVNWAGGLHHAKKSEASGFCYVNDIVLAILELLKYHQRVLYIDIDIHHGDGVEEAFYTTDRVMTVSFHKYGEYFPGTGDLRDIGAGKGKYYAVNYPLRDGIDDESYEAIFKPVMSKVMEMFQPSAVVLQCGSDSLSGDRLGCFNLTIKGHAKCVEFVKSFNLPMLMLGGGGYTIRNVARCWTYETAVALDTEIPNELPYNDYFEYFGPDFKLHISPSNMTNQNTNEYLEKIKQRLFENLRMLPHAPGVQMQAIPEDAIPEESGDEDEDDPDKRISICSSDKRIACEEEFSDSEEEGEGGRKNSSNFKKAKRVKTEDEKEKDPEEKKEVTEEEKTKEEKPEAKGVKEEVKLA

For orientation: IC50 means the concentration needed to halve the response being measured. Regarding `O=C(CCCCCCCN1C(=O)[C@@H]2CCC(=O)N2Cc2ccccc21)NO`, the results for the IC50 in series [1], in series [2] and in series [3] were 21.4 nM, 12.5 nM and 789 nM, respectively. For the same compound, in series [4], the Ratio IC50 was 36.8.

Consider `CN1CCc2c(c3ccccc3n2Cc2ccc(C(=O)NO)cc2)C1` [TUBASTATIN A], for which the Activity result is given as “Non-Toxic” in [5] and “Toxic” in [6]. Also, the result in series [7] was Active.

For `Cc1ccc(=O)n(-c2ccccc2)c1`, the outcome in [8], in series [11], in series [12], in [13], in series [15] and in series [16] was Active. Also, the outcome in [17] and in series [18] was Active. Further, the outcome in series [9], in series [10] and in [14] was inactive.

The values are drawn from ChEMBL document CHEMBL5584244, “Discovery of novel pyrrolo[2,1-c][1,4]benzodiazepine-3,11-dione (PBD) derivatives as selective HDAC6 inhibitors for the efficient treatment of idiopathic pulmonary fibrosis (IPF) in vitro and in vivo” (Eur J Med Chem, 2024).
